Laboratory results published in patent US20220177446A1, “ALKYNE COMPOUNDS AS IRAK INHIBITORS, PREPARATION METHODS AND MEDICINAL USES THEREOF” (Eternity Bioscience Inc., priority 2020, published 2022).
Read-outs that look alike come from different tables or passages of the source.

Columns and labels:
[1] = target: T1, full length human IRAK4 protein (Homo sapiens, UniProt Q9NWZ3); test: IRAK4 Biochemical Assay (Promega ADP-Glo IRAK4 Kinase Enzyme System); conditions: 3 nM enzyme, 250 μM ATP; for IC50: 2 μM MBP, 60 min at room temperature; for IRAK4 Biochemical Assay Max Inhibition (%): maximum inhibition
T1 construct: Purified full length human IRAK4 protein; purchased Signal Chem I12-10G-125
T1 sequence (Q9NWZ3 1-460): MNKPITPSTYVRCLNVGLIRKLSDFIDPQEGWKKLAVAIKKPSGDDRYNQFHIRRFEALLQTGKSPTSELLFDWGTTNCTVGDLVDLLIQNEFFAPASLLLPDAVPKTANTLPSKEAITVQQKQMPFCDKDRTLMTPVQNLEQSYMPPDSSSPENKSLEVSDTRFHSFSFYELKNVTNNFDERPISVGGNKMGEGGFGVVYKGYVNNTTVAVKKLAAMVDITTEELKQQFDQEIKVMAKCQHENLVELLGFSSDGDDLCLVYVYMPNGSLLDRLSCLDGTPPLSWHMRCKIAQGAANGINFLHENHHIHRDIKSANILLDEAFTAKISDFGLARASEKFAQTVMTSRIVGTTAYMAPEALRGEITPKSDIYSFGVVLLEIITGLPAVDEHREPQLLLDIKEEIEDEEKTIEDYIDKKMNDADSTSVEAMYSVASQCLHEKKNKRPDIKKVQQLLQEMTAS
Procedure: For the routine compound screening, an IRAK4 kinase assay was performed as follows using Promega ADP-Glo IRAK4 Kinase Enzyme System (Promega, Cat #2198-AD). Purified full length human IRAK4 protein (Signal Chem; Cat #I12-10G-125) was diluted to a concentration 6 nM in assay buffer (25 mM MOPS, pH 7.2, 12.5 mM β-glycerol-phosphate, 25 mM MgCl2, 5 mM EGTA, 2 mM EDTA, 0.0025% Brij-35, add 0.25 mM DTT to Kinase Assay Buffer prior to use) containing IRAK4 inhibitor at 2× the final concentration in 0.4% DMSO. The reaction was performed in PerkinElmer Proxiplate-384 plus white plate (Fisher Scientific, Cat #50-905-2761) and started by the addition of an equal volume of the assay buffer containing 4 μM native swine myelin basic protein (MBP) and 500 μM ATP to achieve a final concentration of 3 nM enzyme, 2 μM MBP, 250 μM ATP, 1× compound, and 0.2% DMSO. The kinase reaction was allowed to run for 60 min at room temperature (25-27° C.), then 5 μL of ADP-Glo was added to the reaction in each well followed by 40 minutes-incubation at RT. To detect converted […], 10 μL Detection Buffer was added into each well and Incubate at RT in dark for 30 minutes. Finally, luminescence was read using Tecan with 1000 ms of integration time. The luminescent signal positively correlates with ADP amount and kinase activity. Data was analyzed by GraphPad Prism and IC50 was calculated using function log(inhibitor) vs. response—Variable slope (four parameters). Percentage of inhibition was calculated as below:
(§1) % inhibition=(1−(Reading(Sample)−Reading(Negative Control))/(Reading(Positive Control)−Reading(Negative Control)))×100%
The 0% inhibition value comes from the Reading of Positive Control wells having 0 nM compound. The 100% inhibition value comes from the Reading of Negative Control wells having no IRAK4 kinase.

[2] = target: T2, IRAK4 (Homo sapiens, UniProt Q9NWZ3); test: IRAK4 Human PBMC TNFα Cell Based Assay (AlphaLISA); conditions: TNFα measured
T2 construct: host or cells: human peripheral blood mononuclear cells (PBMCs)
T2 sequence (Q9NWZ3 1-460): T1 sequence (Q9NWZ3 1-460)
Procedure: In this assay, serially diluted compounds were incubated with 1×10^4 human peripheral blood mononuclear cells (PBMCs) from STEMCELL (Cat #70025.1) per well of 384-well plate (Fisher Scientific; 50-905-2761) and cultured with TexMACS medium (Miltenyi, Cat #130-097-196), stimulated by R848 (0.5 μM) or IL-1β (10 ng/ml). Plates were covered with lids and incubated for 4 h (R848, Fisher Scientific, Cat #NC9801605) or 24 h (IL-1β, Fisher Scientific, Cat #ENRIL1BI) at 37° C. in a humidified tissue-culture incubator. After a brief centrifugation at 1000 rpm for 5 minutes, 5 μl of culture medium was used for the measurement of the TNFα amount using TNFα (human) AlphaLISA Detection Kit (PerkinElmer, Cat #AL208C) according to manufacturer's protocol. A biotinylated anti-TNFα antibody binds to the Streptavidin-coated Donor beads while another anti-TNFα antibody is conjugated to AlphaLISA Acceptor beads. In the presence of the TNFα, the beads come into close proximity. The excitation of the Donor beads causes the release of singlet oxygen molecules that triggers a cascade of energy transfer in the Acceptor beads, resulting in a sharp peak of light emission at 615 nm. AlphaLISA assay plates were read using PHERAstar. Percentage of inhibition was calculated as below:
as §1
The 0% inhibition value comes from the Reading of Positive Control wells having 0 nM compound. The 100% inhibition value comes from the Reading of Negative Control wells having no R848 or IL-1β.

[3] = target: T3, CYP2D6 (Homo sapiens, UniProt P10635); test: In vitro study for inhibiting cytochrome P450 (CYP) 2D6 using human liver microsomes; format: in vitro ADME; conditions: human liver microsomes 0.1 mg/ml, probe substrate dextromethorphan 4 μM, 30 min at 37° C.; read-out: IC50 of inhibition on CYP2D6
T3 construct: tissue Corning Co, LTD; host or cells: human liver microsomes
Procedure: Potassium phosphate buffer ([…] from Sangon Biotech. Dilute 20×PBS to 100 mM PBS buffer. The stock solutions of NADPH was 5 mM and the final concentration in the incubation system was 1 mM. The stock solution of MgCl2 were 7.5 mM and t the final concentration in the incubation system was 3 mM.
1.1 Preparation of probe substrate solution: The stock solutions of probe substrates of dextromethorphan (Sigma Cat No. D9684) was prepared by using DMSO and the final concentration in incubation system was 4 μM.
1.2 Preparation of selective inhibitors solution: The 30 mM stock solutions of inhibitor of CYP isoforms of Quinidine (Sigma, Q0750) was prepared by using DMSO and the final concentration in incubation system were 30, 10, 3, 1, 0.3, 0.03, 0.003 μM.
1.3 Preparation of test compound 5 and 6 solution: The 30 mM test compound 5 and 6 solutions were prepared by using DMSO and the final concentration in incubation system were 30, 10, 3, 1, 0.3, 0.03, 0.003 μM.
1.4 Human liver microsomes (HLM) were purchased by Corning Co, LTD. Diluted the HLM into 0.25 mg/ml and the final concentration was 0.1 mg/ml.
Added 20 μL working solutions of test compound 5 or 6 or selective inhibitors into a 96-well plate. Then added 40 μL of the HLM working solution and 20 μL of the substrate working solution. […] Samples are now ready for LC/MS/MS analysis.

[4] = human PBMCs stimulated by IL-1β (10 ng/ml), 24 h, read-out: IRAK4 PBMC AlphaLISA IL-1β (IC50)
[5] = human PBMCs stimulated by R848 (0.5 μM), 4 h, read-out: IRAK4 PBMC AlphaLISA R848 (IC50)

T3 sequence (P10635 whole entry): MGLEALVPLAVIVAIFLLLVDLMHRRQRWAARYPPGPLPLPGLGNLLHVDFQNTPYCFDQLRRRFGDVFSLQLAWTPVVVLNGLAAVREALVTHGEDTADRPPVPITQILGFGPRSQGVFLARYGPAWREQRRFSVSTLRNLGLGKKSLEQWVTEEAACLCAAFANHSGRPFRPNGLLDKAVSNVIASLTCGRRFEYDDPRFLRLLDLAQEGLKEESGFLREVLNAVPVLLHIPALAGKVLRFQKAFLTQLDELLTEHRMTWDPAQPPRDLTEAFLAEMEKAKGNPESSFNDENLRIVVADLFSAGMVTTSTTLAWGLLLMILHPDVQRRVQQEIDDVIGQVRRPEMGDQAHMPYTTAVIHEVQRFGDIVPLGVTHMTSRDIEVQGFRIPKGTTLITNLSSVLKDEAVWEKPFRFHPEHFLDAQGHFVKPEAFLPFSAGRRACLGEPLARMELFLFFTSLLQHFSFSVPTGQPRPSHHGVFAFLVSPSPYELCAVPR

Structure (SMILES) | IC50 [1] [nM] | IRAK4 Biochemical Assay Max Inhibition (%) [1] [%] | IC50 [2, 4] [nM] | IC50 [2, 5] [nM] | IC50 [3] [µM]
CC[C@@H]1[C@H](F)C(=O)N[C@@H]1COc1ncc(C#CCN(C)C)c2cc(C(N)=O)c(OC)cc12 [Example 5, 4-(3-(dimethylamino)prop-1-yn-1-yl)-1-(((2S,3S,4S)-3-ethyl-4-fluoro-5-oxopyrrolidin-2-yl)methoxy)-7-methoxyisoquinoline-6-carboxamide] | 6.2 | 100.0 | 2.2 | 0.7 | > 30
CC[C@@H]1[C@H](F)C(=O)N[C@@H]1COc1ccc(C#CC(C)(C)N(C)C)c2cc(C(N)=O)c(OC)cc12 [Example 33, 8-(3-(dimethylamino)-3-methylbut-1-yn-1-yl)-5-(((2S,3S,4S)-3-ethyl-4-fluoro-5-oxopyrrolidin-2-yl)methoxy)-3-methoxy-2-naphthamide] | 13 | 99.0 | 41 | 25 | 
CC[C@@H]1[C@H](F)C(=O)N[C@@H]1COc1ncc(C#CC(C)(C)N(C)C)c2cc(C(N)=O)c(OC(C)C)cc12 [Example 35, 4-(3-(dimethylamino)-3-methylbut-1-yn-1-yl)-1-(((2S,3S,4S)-3-ethyl-4-fluoro-5-oxopyrrolidin-2-yl)methoxy)-7-isopropoxyisoquinoline-6-carboxamide] | 39 | 93.0 | 110 | 36 | 

The next lines start with the values.

IC50 [1] [nM] | IRAK4 Biochemical Assay Max Inhibition (%) [1] [%] | IC50 [2, 4] [nM] | IC50 [2, 5] [nM] | IC50 [3] [µM] | Structure (SMILES)
14.5 | 100.0 | 1.3 | 1 | 13.7 | CC[C@@H]1[C@H](F)C(=O)N[C@@H]1COc1ncc(C#CCOC)c2cc(C(N)=O)c(OC)cc12 [Example 6, 1-(((2S,3S,4S)-3-ethyl-4-fluoro-5-oxopyrrolidin-2-yl)methoxy)-7-methoxy-4-(3-methoxyprop-1-yn-1-yl)isoquinoline-6-carboxamide]
45 | 99.0 | 17 | 11 |  | CC[C@@H]1[C@H](F)C(=O)N[C@@H]1COc1ncc(C#CC(C)(C)C)c2cc(C(N)=O)c(OC)cc12 [Example 32, 4-(3,3-dimethylbut-1-yn-1-yl)-1-(((2S,3S,4S)-3-ethyl-4-fluoro-5-oxopyrrolidin-2-yl)methoxy)-7-methoxyisoquinoline-6-carboxamide]
8.9 | 92.0 | 46 | 32 |  | CC[C@@H]1[C@H](F)C(=O)N[C@@H]1COc1ncc(C#CC(C)(C)N(C)C)c2cc(C(N)=O)c(OC)cc12 [Example 34, 4-(3-(dimethylamino)-3-methylbut-1-yn-1-yl)-1-(((2S,3S,4S)-3-ethyl-4-fluoro-5-oxopyrrolidin-2-yl)methoxy)-7-methoxyisoquinoline-6-carboxamide]
